{"source": "patent US20050227300A1", "about": "“Use of alpha-tubulin acetylation levels as a biomarker for protein deacetylase inhibitors” (priority 2001, published 2005)", "key": {"[1]": {"system": "HCT 166 cells", "test": "2-D gel electrophoresis / western blotting with anti-acetyllysine of extracts of HDAC-2 treated cells", "assay_type": "cell-based, human", "conditions": "HDAC-2 treated vs control, IEF pH 3-10", "description": "For Identifying the protein, cell extracts of HDAC-2 treated and control HCT 166 cells are separated by 2-D gel electrophoresis with a broad range IEF gel (pH 3-10) in the first dimension and analyzed by western blotting with anti-acetyllysine.\nOne set of gels is used for immunoblotting with anti-acetyllysine antibody detection and a second set is reserved for staining of the gel with Coomassie blue."}, "[2]": {"system": "alpha-tubulin acetylation", "test": "Time course of HDAC-2 induced tubulin acetylation in cell lines", "assay_type": "cell-based", "conditions": "200 nM", "from_the_text": "Time Course of HDAC-2 Induced Tubulin Acetylation in Cell Lines"}, "[3]": {"system": "Tubulin Acetylation in HCT 116 Tumor Xenografts", "test": "Tubulin acetylation in HCT 116 tumor xenografts in mice (western blotting with anti-acetylated alpha-tubulin antibody)", "assay_type": "in vivo", "experimental": "In order to correlate the antitumor activity of HDAC-2 with its induction of tubulin acetylation, levels of acetylated tubulin are examined in tumors of athymic mice bearing HCT 116 treated with HDAC-2 and control mice. Mice are dosed with 100 mg/kg of HDAC-2 and the tumors are dissected 3, 6, 16 or 24 h post dose. Tubulin acetylation levels are detected with antibodies specific for acetylated alpha-tubulin. […] Tumors are dissected 1 hour post dose and levels of acetylated tubulin determined by western blotting with the anti-acetylated alpha-tubulin antibody."}, "[4]": {"conditions": "athymic mice bearing HCT 116, 100 mg/kg, intravenous"}}, "data": [{"smiles": "O=C(/C=C/c1ccc(CN(CCO)CCc2c[nH]c3ccccc23)cc1)NO", "note": "[HDAC-2, N-hydroxy-3-[4-[[(2-hydroxyethyl)[2-(1H-indol-3-yl)ethyl]-amino]methyl]phenyl]-2E-2-propenamide]", "values": [{"measurement": "anti-acetyllysine immunostaining of cell extracts (histone bands and non-histone spot around pH 4.5, later identified as acetylated alpha-tubulin)", "setting": "[1]", "result": "prominently stained bands of low molecular weight corresponding to histones are visible at the lower right corner as well as a non-histone spot around pH 4.5"}, {"measurement": "time of maximal alpha-tubulin acetylation", "setting": "[2]", "result": 4, "unit": "h"}, {"measurement": "acetylation of alpha-tubulin reached, relative to the maximal acetylation (at 4 hours)", "setting": "[2]; 30 min after addition", "result": "more than 30%"}, {"measurement": "state of cells at last time point", "setting": "[2]; 18 hours", "result": "cells are visibly damaged"}, {"measurement": "induction of tubulin acetylation in the tumors", "setting": "[3]; HCT 116 tumor bearing mice, i.v. dose as low as 2 mg/kg, 1 hour post dose", "result": "able to induce tubulin acetylation"}, {"measurement": "Proliferating Cell Nuclear Antigen (PCNA) levels in tumors", "setting": "[3]; [4]", "result": "essentially invariant"}, {"measurement": "duration of increase in acetylated alpha-tubulin in tumors", "setting": "[3]; [4]", "result": "at least 8 h"}, {"measurement": "time to consistent increases in acetylated alpha-tubulin in tumors", "setting": "[3]; [4]", "result": "≤ 30", "unit": "min"}]}]}
